According to patent US20230399289A1, “ITACONIC ACID DERIVATIVES” (Sitryx Therapeutics Limited, priority 2020, published 2023):
Counter-ions that a name gives are not always drawn.

Experiments:
[1] = system: IL-1β cytokine output from THP-1 cells; assay: THP-1 AlphaLISA IL-1β cytokine assay; format: cell-based; settings: Homo sapiens, THP-1, differentiated THP-1 cells, LPS 24 hr then Nigericin 1 hour
Procedure: (§1) Measuring Inhibitory Effects on IL-1β and IL-6 Cytokine Output from THP-1s
(§2) The cytokine inhibition profiles of compounds of formula (I) were determined in a differentiated THP-1 cell assay. All assays were performed in RPMI-1640 growth medium (Gibco), supplemented with 10% fetal bovine serum (FBS; Gibco), 1% penicillin-streptomycin and 1% sodium pyruvate unless specified otherwise. The IL-1β and IL-6 cytokine inhibition assays were each run in a background of differentiated THP-1 cells as described below. All reagents described were from Sigma-Aldrich unless specified otherwise. Compounds were prepared as 10 mM DMSO stocks.
(§3) THP-1 cells were expanded as a suspension up to 80% confluence in appropriate growth medium. Cells were harvested, suspended, and treated with an appropriate concentration of phorbol 12-myristate 13-acetate (PMA) over a 72 hr period (37° C./5% CO2).
(§4) Following 72 hrs of THP-1 cell incubation, cellular medium was removed and replaced with fresh growth media containing 1% of FBS. Working concentrations of compounds were prepared separately in 10% FBS treated growth medium and pre-incubated with the cells for 30 minutes (37° C./5% CO2). Following the 30 minute compound pre-incubation, THP-1s were treated with an appropriate concentration of LPS and the THP-1s were subsequently incubated for a 24 hr period (37° C./5% CO2). An appropriate final concentration of Nigericin was then dispensed into the THP-1 plates and incubated for 1 hour (37° C./5% CO2) before THP-1 supernatants were harvested and collected in separate polypropylene 96-well holding plates.
(§5) Reagents from each of the […] and IL-6 commercial kits (Perkin Elmer) were prepared and run according to the manufacturer's instructions. Subsequently, fluorescence signal detection in a microplate reader was measured (EnVision® Multilabel Reader, Perkin Elmer).
(§6) Percentage inhibition was calculated per cytokine by normalising the sample data to the high and low controls used within each plate (+/−LPS respectively). Percentage inhibition was then plotted against compound concentration and the 50% inhibitory concentration (IC50) was determined from the resultant concentration-response curve.

[2] = Hepatocyte stability assay, mouse; format: in vitro ADME; settings: cryopreserved hepatocytes, 10 μM compound, 0.5×10^6 cells/mL, 60 min, read-out: T½
Source text: (§7) Defrosted cryo-preserved hepatocytes (viability>70%) may be used to determine the metabolic stability of a compound via calculation of intrinsic clearance (Clint; a measure of the removal of a compound from the liver in the absence of blood flow and cell binding). Clearance data are particularly important for in vitro work as they can be used in combination with in vivo data to predict the half-life and oral bioavailability of a drug.
(§8) The metabolic stability in hepatocytes assay involves a time-dependent reaction using both positive and negative controls. The cells were pre-incubated at 37° C. and spiked with test compound (and positive control); samples were taken at pre-determined time intervals and analysed to monitor the change in concentration of the initial drug compound over 60 minutes. A buffer incubation reaction (with no hepatocytes present) acted as a negative control and two cocktail solutions, containing compounds with known high and low clearance values (verapamil/7-hydroxycoumarin and propranolol/diltiazem), acted as positive controls. • 1. The assay was run with a cell concentration of 0.5×10^6 cells/mL in Leibovitz buffer. • 2. All compounds and controls were run in duplicate. • 3. Compound concentration was 10 μM. • 4. All compounds and controls were incubated with both cells and buffer to show turnover was due to hepatic metabolism. • 5. All wells on the incubation plate had 326.7 μL of either cells or buffer added. • 6. Prior to assay, cell and buffer-only incubation plates were preincubated for 10 mins at 37° C. • 7. The assay was initiated by adding compounds, 3.3 μL of 1 mM in 10% DMSO-90% Buffer; final DMSO concentration is 0.1%. • 8. Samples were taken at regular timepoints (0, 5, 10, 20, 40, 60 min) until 60 mins. • 9. Sample volume was 40 μL and was added to 160 μL of crash solvent (acetonitrile with internal standard) and stored on ice. • 10. At the end of the assay, the crash plates were centrifuged at 3500 rpm for 20 mins at 4° C. • 11. 80 μL of clear supernatant was removed and mixed with 80 μL of deionised water before being analysed by LC-MS/MS.
(§9) Raw LC-MS/MS data was exported to, and analysed in, Microsoft Excel for determination of intrinsic clearance. The percentage remaining of a compound was monitored using the peak area of the initial concentration as 100%. Intrinsic clearance and half-life values were calculated using a graph of the natural log of percentage remaining versus the time of reaction in minutes. Half-life (min) and intrinsic clearance (Clint in μL min^−1 10^−6 cells) values were calculated using the gradient of the graph (the elimination rate constant, k) and Equations 1 and 2.

hepatocytes [3] = assay: Hepatocyte stability assay, mouse; format: in vitro ADME; settings: 10 μM compound, 0.5×10^6 cells/mL, 60 min
Source text: as §7, §8, §9

[4] = Hepatocyte stability assay, human; format: in vitro ADME; settings: cryopreserved hepatocytes, 10 μM compound, 0.5×10^6 cells/mL, 60 min, read-out: T½
Source text: as §7, §8, §9

hepatocytes [5] = assay: Hepatocyte stability assay, human; format: in vitro ADME; settings: 10 μM compound, 0.5×10^6 cells/mL, 60 min
Source text: as §7, §8, §9

[6] = system: IL-6 cytokine output from THP-1 cells; assay: THP-1 AlphaLISA IL-6 cytokine assay; format: cell-based; settings: Homo sapiens, THP-1, differentiated THP-1 cells, LPS 24 hr then Nigericin 1 hour
Procedure: as §1, §2, §3, §4, §5, §6

[7] = system: NRF2 (nuclear factor erythroid 2-related factor 2); assay: NRF2 +/−GSH activation assay (DiscoverX PathHunter NRF2 translocation kit, U2OS cells); format: cell-based; settings: Homo sapiens; for Emax: U2OS, normalised to dimethyl fumarate high control; for EC50: U2OS PathHunter cells, 6 hours
[8] = +GSH, 30 minute compound-GSH pre-incubation

With `C=C(CC(=O)OC1(c2ccc(C)c(Cl)c2)CCC1)C(=O)OCC(=O)O` [Example 20, 2-((4-(1-(3-chloro-4-methylphenyl)cyclobutoxy)-2-methylene-4-oxobutanoyl)oxy)acetic acid] the IC50 [1] was 8.7 µM, the half-life at 10 μM [2] was 26 min and the CIint (hepatocytes [3]) was 77 μL min^−1 10^−6 cells. It also gave a half-life at 10 μM [4] of 84 min and a CIint (hepatocytes [5]) of 15 μL min^−1 10^−6 cells.

In the case of `C=C(CC(=O)OC1(c2ccc(C(F)(F)F)cc2)COC1)C(=O)OCC(=O)O` [Example 29, 2-((2-methylene-4-oxo-4-((3-(4-(trifluoromethyl)phenyl)oxetan-3-yl)oxy)butanoyl)oxy)acetic acid], the IC50 [6] is reported as 45.2 µM and the IC50 [1] is reported as 43.2 µM.

`C=C(CC(=O)OC1(C#Cc2ccc(C(F)(F)F)cc2)CCC1)C(=O)OCC(=O)O` [Example 28, 2-((2-methylene-4-oxo-4-(1-((4-(trifluoromethyl)phenyl)ethynyl)cyclobutoxy)butanoyl)oxy)acetic acid] gave an IC50 [6] of 3.3 µM and an IC50 [1] of 11.3 µM.

`C=C(CC(=O)OC1(c2cc(Cl)cc(C(F)(F)F)c2)CCC1)C(=O)OCC(=O)O` [Example 15, 2-((4-(1-(3-chloro-5-(trifluoromethyl)phenyl)cyclobutoxy)-2-methylene-4-oxobutanoyl)oxy)acetic acid] gave an IC50 [1] of 8.6 µM.

Work on `C=C(CC(=O)OC1(c2cc(Cl)c(F)c(Cl)c2)CCC1)C(=O)OCC(=O)O` [Example 17, 2-((4-(1-(3,5-dichloro-4-fluorophenyl)cyclobutoxy)-2-methylene-4-oxobutanoyl)oxy)acetic acid] yielded an IC50 [1] of 4.9 µM, a half-life at 10 μM [2] of 21 min and a CIint (hepatocytes [3]) of 73 μL min^−1 10^−6 cells. It also gave a half-life at 10 μM [4] of 188 min and a CIint (hepatocytes [5]) of 8 μL min^−1 10^−6 cells.

Work on `C=C(CC(=O)OC1(Cc2ccc(Cl)cc2)CCC1)C(=O)OCC(=O)O` [Example 24, 2-((4-(1-(4-chlorobenzyl)cyclobutoxy)-2-methylene-4-oxobutanoyl)oxy)acetic acid] yielded an IC50 [6] of 11.3 µM, an IC50 [1] of 14.5 µM and an Emax ([7]; +GSH) of 119%. For the same compound, the Emax ([7]; −GSH) was 194%, the EC50 [7, 8] was 28.3 µM and the EC50 ([7]; −GSH) was 29.6 µM.

`C=C(CC(=O)OC1(c2ccc(C(F)(F)F)cc2)CC(F)(F)C1)C(=O)OCC(=O)O` [Example 31, 2-((4-(3,3-difluoro-1-(4-(trifluoromethyl)phenyl)cyclobutoxy)-2-methylene-4-oxobutanoyl)oxy)acetic acid] showed an IC50 [6] of 16.5 µM, an IC50 [1] of 14.4 µM and an Emax ([7]; +GSH) of 108%. The Emax ([7]; −GSH) was 182%, the EC50 [7, 8] was 30.8 µM and the EC50 ([7]; −GSH) was 21.7 µM.

In the case of `C=C(CC(=O)OC)C(=O)OC` [dimethyl itaconate, reference compound], the IC50 [6] is reported as > 100 µM and the IC50 [1] is reported as > 100 µM.

With `C=C(CC(=O)OC1(c2cc(F)c(F)c(F)c2)CCC1)C(=O)OCC(=O)O` [Example 14, 2-((2-methylene-4-oxo-4-(1-(3,4,5-trifluorophenyl)cyclobutoxy)butanoyl)oxy)acetic acid] the IC50 [1] was 19.9 µM.

With `C=C(CC(=O)OCCCCCCCC)C(=O)O` [4-octyl itaconate, reference compound] the CIint (hepatocytes [3]) was 351 μL min^−1 10^−6 cells, the T½ (hepatocytes [3]) was 4 min and the CIint (hepatocytes [5]) was 401 μL min^−1 10^−6 cells. The T½ (hepatocytes [5]) was 4 min.

For `C=C(CC(=O)OC1(c2cc(Cl)c(OC)c(Cl)c2)CCC1)C(=O)OCC(=O)O` [Example 18, 2-((4-(1-(3,5-dichloro-4-methoxyphenyl)cyclobutoxy)-2-methylene-4-oxobutanoyl)oxy)acetic acid], the IC50 [1] was 9.9 µM, the half-life at 10 μM [2] was 26 min and the CIint (hepatocytes [3]) was 58 μL min^−1 10^−6 cells. The half-life at 10 μM [4] was 109 min and the CIint (hepatocytes [5]) was 13 μL min^−1 10^−6 cells.

For `C=C(CC(=O)OC1(c2ccc(-c3ccc(F)cc3)cc2)CCC1)C(=O)OCC(=O)O` [Example 26, 2-((4-(1-(4′-fluoro-[1,1′-biphenyl]-4-yl)cyclobutoxy)-2-methylene-4-oxobutanoyl)oxy)acetic acid], the IC50 [6] was 3.9 µM and the IC50 [1] was 46.9 µM.

For `COC(=O)/C=C/C(=O)OC` [dimethyl fumarate, reference compound], the Emax ([7]; +GSH) was 19%, the Emax ([7]; −GSH) was 100% and the EC50 [7, 8] was > 100 µM. The EC50 ([7]; −GSH) was 6 µM.

Compound `C=C(CC(=O)OC1(c2cc(F)c(C(F)(F)F)c(F)c2)CCC1)C(=O)OCC(=O)O` [Example 19, 2-((4-(1-(3,5-difluoro-4-(trifluoromethyl)phenyl)cyclobutoxy)-2-methylene-4-oxobutanoyl)oxy)acetic acid] has an IC50 [1] of 4.4 µM, a half-life at 10 μM [2] of 23 min and a CIint (hepatocytes [3]) of 66 μL min^−1 10^−6 cells. For the same compound, the half-life at 10 μM [4] was 187 min and the CIint (hepatocytes [5]) was 8 μL min^−1 10^−6 cells.

Compound `C=C(CC(=O)OC1(c2ccc(C(F)(F)F)c(Cl)c2)CCC1)C(=O)OCC(=O)O` [Example 16, 2-((4-(1-(3-chloro-4-(trifluoromethyl)phenyl)cyclobutoxy)-2-methylene-4-oxobutanoyl)oxy)acetic acid] has an IC50 [1] of 4.9 µM, a half-life at 10 μM [2] of 25 min and a CIint (hepatocytes [3]) of 61 μL min^−1 10^−6 cells. It also gave a half-life at 10 μM [4] of 209 min and a CIint (hepatocytes [5]) of 7 μL min^−1 10^−6 cells.

In the case of `C=C(CC(=O)OC1(c2ccc(C(F)(F)F)cc2)CCCC1)C(=O)OCC(=O)O` [Example 25, 2-((2-methylene-4-oxo-4-((1-(4-(trifluoromethyl)phenyl)cyclopentyl)oxy)butanoyl)oxy)acetic acid], the IC50 [6] is reported as 15.9 µM and the IC50 [1] is reported as 17.4 µM.

In the case of `C=C(CC(=O)OC1(Cc2ccc(C(F)(F)F)cc2)CC1)C(=O)OCC(=O)O` [Example 27, 2-((2-methylene-4-oxo-4-(1-(4-(trifluoromethyl)benzyl)cyclopropoxy)butanoyl)oxy)acetic acid], the IC50 [6] is reported as 14.1 µM and the IC50 [1] is reported as 16.4 µM.

With `C=C(CC(=O)OC1(c2ccc(C(F)(F)F)cc2)CCC1)C(=O)O[C@@H](CC(=O)O)C(F)(F)F` [Example 21, (S)-4,4,4-trifluoro-3-((2-methylene-4-oxo-4-(1-(4-(trifluoromethyl)phenyl)cyclobutoxy)butanoyl)oxy)butanoic acid] the IC50 [6] was 0.9 µM, the IC50 [1] was 1 µM and the Emax ([7]; +GSH) was 53%. The Emax ([7]; −GSH) was 170%, the EC50 [7, 8] was 5.7 µM and the EC50 ([7]; −GSH) was 1.7 µM.

For `C=C(CC(=O)OC1(c2ccc(C(F)(F)F)cc2)CCC1)C(=O)O[C@H](CC(=O)O)C(F)(F)F` [Example 23, (R)-4,4,4-trifluoro-3-((2-methylene-4-oxo-4-(1-(4-(trifluoromethyl)phenyl)cyclobutoxy)butanoyl)oxy)butanoic acid], the IC50 [6] was 1.2 µM, the IC50 [1] was 1.5 µM and the Emax ([7]; +GSH) was 54%. It also gave an Emax ([7]; −GSH) of 141%, an EC50 [7, 8] of 5.3 µM and an EC50 ([7]; −GSH) of 2.3 µM.
